# Experimental data from the CheMixHub viscosity set.
# ± gives the uncertainty stated by the source.
# Assay: xn = mol fraction of the nth substance listed
# Settings: 101.33 kPa
compound,measurement,setting,value
CCCCCCCCCCCC(=O)OCC + CCCCO,viscosity,"293.15 K, x1 = 0.1001",2.703 ± 0.031 mPa·s
same,viscosity,"293.15 K, x1 = 0.2001",2.643 ± 0.03 mPa·s
same,viscosity,"293.15 K, x1 = 0.3002",2.654 ± 0.031 mPa·s
same,viscosity,"293.15 K, x1 = 0.4",2.718 ± 0.031 mPa·s
same,viscosity,"293.15 K, x1 = 0.5001",2.8 ± 0.032 mPa·s
same,viscosity,"293.15 K, x1 = 0.6002",2.891 ± 0.033 mPa·s
same,viscosity,"293.15 K, x1 = 0.6997",3.008 ± 0.034 mPa·s
same,viscosity,"293.15 K, x1 = 0.8",3.111 ± 0.036 mPa·s
same,viscosity,"293.15 K, x1 = 0.9001",3.225 ± 0.037 mPa·s
same,viscosity,"293.15 K, x2 = 0.1019",3.227 ± 0.13 mPa·s
same,viscosity,"293.15 K, x2 = 0.2001",3.082 ± 0.13 mPa·s
same,viscosity,"293.15 K, x2 = 0.3",2.969 ± 0.12 mPa·s
same,viscosity,"293.15 K, x2 = 0.4001",2.866 ± 0.12 mPa·s
same,viscosity,"293.15 K, x2 = 0.5",2.781 ± 0.11 mPa·s
same,viscosity,"293.15 K, x2 = 0.6",2.699 ± 0.11 mPa·s
same,viscosity,"293.15 K, x2 = 0.7",2.641 ± 0.11 mPa·s
same,viscosity,"293.15 K, x2 = 0.8",2.624 ± 0.11 mPa·s
same,viscosity,"293.15 K, x2 = 0.8999",2.688 ± 0.11 mPa·s
same,viscosity,"298.15 K, x2 = 0.1019",2.872 ± 0.12 mPa·s
same,viscosity,"298.15 K, x2 = 0.2001",2.757 ± 0.11 mPa·s
same,viscosity,"298.15 K, x2 = 0.3",2.645 ± 0.11 mPa·s
same,viscosity,"298.15 K, x2 = 0.4001",2.566 ± 0.11 mPa·s
same,viscosity,"298.15 K, x2 = 0.5",2.477 ± 0.1 mPa·s
same,viscosity,"298.15 K, x2 = 0.6",2.409 ± 0.099 mPa·s
same,viscosity,"298.15 K, x2 = 0.7",2.363 ± 0.097 mPa·s
same,viscosity,"298.15 K, x2 = 0.8",2.342 ± 0.096 mPa·s
same,viscosity,"298.15 K, x2 = 0.8999",2.395 ± 0.098 mPa·s
same,viscosity,"303.15 K, x1 = 0.0997",2.129 ± 0.025 mPa·s
same,viscosity,"303.15 K, x1 = 0.2001",2.093 ± 0.025 mPa·s
same,viscosity,"303.15 K, x1 = 0.2998",2.118 ± 0.025 mPa·s
same,viscosity,"303.15 K, x1 = 0.3532",2.142 ± 0.025 mPa·s
same,viscosity,"303.15 K, x1 = 0.4999",2.233 ± 0.026 mPa·s
same,viscosity,"303.15 K, x1 = 0.5982",2.313 ± 0.027 mPa·s
same,viscosity,"303.15 K, x1 = 0.6997",2.386 ± 0.028 mPa·s
same,viscosity,"303.15 K, x1 = 0.7986",2.474 ± 0.029 mPa·s
same,viscosity,"303.15 K, x1 = 0.9006",2.582 ± 0.03 mPa·s
same,viscosity,"303.15 K, x2 = 0.1019",2.575 ± 0.11 mPa·s
same,viscosity,"303.15 K, x2 = 0.2001",2.468 ± 0.1 mPa·s
same,viscosity,"303.15 K, x2 = 0.3",2.391 ± 0.098 mPa·s
same,viscosity,"303.15 K, x2 = 0.4001",2.309 ± 0.095 mPa·s
same,viscosity,"303.15 K, x2 = 0.5",2.241 ± 0.092 mPa·s
same,viscosity,"303.15 K, x2 = 0.6",2.164 ± 0.089 mPa·s
same,viscosity,"303.15 K, x2 = 0.7",2.122 ± 0.087 mPa·s
same,viscosity,"303.15 K, x2 = 0.8",2.092 ± 0.086 mPa·s
same,viscosity,"303.15 K, x2 = 0.8999",2.131 ± 0.087 mPa·s
same,viscosity,"308.15 K, x2 = 0.1019",2.311 ± 0.095 mPa·s
same,viscosity,"308.15 K, x2 = 0.2001",2.225 ± 0.091 mPa·s
same,viscosity,"308.15 K, x2 = 0.3",2.147 ± 0.088 mPa·s
same,viscosity,"308.15 K, x2 = 0.4001",2.084 ± 0.085 mPa·s
same,viscosity,"308.15 K, x2 = 0.5",2.015 ± 0.083 mPa·s
same,viscosity,"308.15 K, x2 = 0.6",1.943 ± 0.08 mPa·s
same,viscosity,"308.15 K, x2 = 0.7",1.9 ± 0.078 mPa·s
same,viscosity,"308.15 K, x2 = 0.8",1.868 ± 0.077 mPa·s
same,viscosity,"308.15 K, x2 = 0.8999",1.896 ± 0.078 mPa·s
same,viscosity,"313.15 K, x1 = 0.1",1.744 ± 0.021 mPa·s
same,viscosity,"313.15 K, x1 = 0.1724",1.724 ± 0.021 mPa·s
same,viscosity,"313.15 K, x1 = 0.2999",1.72 ± 0.021 mPa·s
same,viscosity,"313.15 K, x1 = 0.4004",1.742 ± 0.021 mPa·s
same,viscosity,"313.15 K, x1 = 0.4998",1.781 ± 0.021 mPa·s
same,viscosity,"313.15 K, x1 = 0.5998",1.818 ± 0.022 mPa·s
same,viscosity,"313.15 K, x1 = 0.7011",1.862 ± 0.022 mPa·s
same,viscosity,"313.15 K, x1 = 0.7997",1.927 ± 0.023 mPa·s
same,viscosity,"313.15 K, x1 = 0.8926",1.979 ± 0.023 mPa·s
same,viscosity,"313.15 K, x2 = 0.1019",2.112 ± 0.087 mPa·s
same,viscosity,"313.15 K, x2 = 0.2001",2.018 ± 0.083 mPa·s
same,viscosity,"313.15 K, x2 = 0.3",1.946 ± 0.08 mPa·s
same,viscosity,"313.15 K, x2 = 0.4001",1.881 ± 0.077 mPa·s
same,viscosity,"313.15 K, x2 = 0.5",1.816 ± 0.074 mPa·s
same,viscosity,"313.15 K, x2 = 0.6",1.754 ± 0.072 mPa·s
same,viscosity,"313.15 K, x2 = 0.7",1.709 ± 0.07 mPa·s
same,viscosity,"313.15 K, x2 = 0.8",1.685 ± 0.069 mPa·s
same,viscosity,"313.15 K, x2 = 0.8999",1.695 ± 0.069 mPa·s
same,viscosity,"318.15 K, x2 = 0.1019",1.934 ± 0.079 mPa·s
same,viscosity,"318.15 K, x2 = 0.2001",1.855 ± 0.076 mPa·s
same,viscosity,"318.15 K, x2 = 0.3",1.787 ± 0.073 mPa·s
same,viscosity,"318.15 K, x2 = 0.4001",1.725 ± 0.071 mPa·s
same,viscosity,"318.15 K, x2 = 0.5",1.66 ± 0.068 mPa·s
same,viscosity,"318.15 K, x2 = 0.6",1.605 ± 0.066 mPa·s
same,viscosity,"318.15 K, x2 = 0.7",1.563 ± 0.064 mPa·s
same,viscosity,"318.15 K, x2 = 0.8",1.529 ± 0.063 mPa·s
same,viscosity,"318.15 K, x2 = 0.8999",1.534 ± 0.063 mPa·s
same,viscosity,"323.15 K, x2 = 0.1019",1.745 ± 0.072 mPa·s
same,viscosity,"323.15 K, x2 = 0.2001",1.674 ± 0.069 mPa·s
same,viscosity,"323.15 K, x2 = 0.3",1.615 ± 0.066 mPa·s
same,viscosity,"323.15 K, x2 = 0.4001",1.563 ± 0.064 mPa·s
same,viscosity,"323.15 K, x2 = 0.5",1.508 ± 0.062 mPa·s
same,viscosity,"323.15 K, x2 = 0.6",1.447 ± 0.059 mPa·s
same,viscosity,"323.15 K, x2 = 0.7",1.399 ± 0.057 mPa·s
same,viscosity,"323.15 K, x2 = 0.8",1.374 ± 0.056 mPa·s
same,viscosity,"323.15 K, x2 = 0.8999",1.364 ± 0.056 mPa·s
